# Laboratory results as given in paper PMC6792350 (Environmental Health Perspectives, 2019).
# What was measured:
# [1] = no reference given; cited from earlier work
# [2] = Cumulative urinary excretion after IV and oral dosing in piglets
# Procedure: Blood samples were collected in heparinized polypropylene tubes, immediately chilled in ice and centrifuged for 10 min at 3,000×g at 4°C, and the supernatant plasma was stored in polypropylene tubes at −20°C until assay. Total urine was filtered through a nylon mesh ( 250μm ) and collected in glass containers and chilled in ice. The volume of each urine sample and the sampling time were recorded. A urine sample was immediately chilled in ice and centrifuged for 10 min at 3,000×g at 4°C and stored at −20°C until assayed.
# Analytes were quantified by Acquity UPLC-MS/MS (Waters Corporation).
# All TK analyses were performed using the Phoenix® NLME (version 8.0; Pharsight Corporation). The plasma mass concentrations were converted into molar concentrations before analysis.
# in vivo = test: in vivo
# Procedure: Table 1 summarizes the protocol of the experiments and the plasma and urine datasets further considered for TK analyses.
# For administrations by gavage, BPA powder was dissolved in ethanol–corn oil (1:9, vol:vol) at 100mg/mL (Exp. 1).
# (§1) The plasma analytes concentration–time data from individual piglets were used to derive the maximum concentration (Cmax), and the time to maximum concentration (Tmax). The area under the plasma concentration–time curves from dosing time to the time of the last measurable concentration ( AUC0–tlast ) were calculated using the linear trapezoidal rule (Equation 1). (1) AUC0–tlast=∑0tlast(Ci−1+Ci/2)×(ti−ti−1) where Ci is the concentration obtained at the time i ( ti ).
# (§2) The area under the plasma concentration time curve from t=0 to infinity ( AUC0–inf ) was obtained using Equation 2. (2) AUC0–inf=AUC0–tlast+AUCtlast–inf where AUCtlast–inf is the area extrapolated from the last observation to infinity, calculated according to Equation 3: (3) AUCtlast–inf=Clast/λz where Clast is the last observed quantifiable plasma concentration, and λz is the slope of the terminal phase, as estimated by linear regression using the best fit option of Phoenix®.
# [3] = human; cited from earlier work
# [4] = Noncompartmental toxicokinetic analysis of plasma after IV dosing in piglets
# Procedure: Table 1 summarizes the protocol of the experiments and the plasma and urine datasets further considered for TK analyses. A first experiment (Exp. 1) was performed in 8 male piglets age 42 d ( 20.8±1.6kg BW) to investigate oral BPA TK. […] BPA data obtained after IV BPA administrations had already been used to evaluate human BPA clearance using an allometric approach ([Collet et al. 2015]).
# For the IV administrations, BPA powder was dissolved in ethanol–propylene glycol (1:49, vol:vol) at 50mg/mL (Exp.1 and 2) and in ethanol–saline (1:2, vol:vol) at 23mg/mL (Exp. 5).
# During the first 24 h of sampling, the piglets were housed individually in stainless steel cages.
# as §1, §2
# [5] = set-up: method as in EFSA CEF Panel 2015; details: ref EFSA CEF Panel 2015; cited from earlier work
# [6] = Population semiphysiologically based 9-compartment TK model (NLME) of plasma and urine data in piglets; details: for bioavailability: po; for k el: plasma and urine, other: intravenous and oral (data sets combined), tvK30, elimination rate constant from plasma to urine
# Procedure: The NLME model was therefore developed by combining the plasma and urinary data sets from the five TK experiments carried out in piglets, except for the urinary BPA concentration obtained after oral administration of BPA.
# Different compartmental models and submodels were tested and compared using the likelihood ratio test (LRT). The primary parameters of the model, namely the volumes of distribution ( VBPA , VBPAG , VBPS , VBPSG ) and the first-order rate constants ( Kij ) and their associated precisions [standard error (SE)] were estimated by minimizing an objective function value (OFV) expressed as minus twice the log of the likelihood estimation ( −2LL ).
# The between-subject variability (BSV) of the parameters was evaluated using the exponential model θparameter_i=θtv_parameter×exp(ηi) , where θparameter_i is the parameter estimated for the i^th individual, θtv_parameter is the typical population value of the parameter, and ηi is the deviation associated with the i^th individual from the corresponding value of the parameter at the population level. The distribution of ηi was assumed to be normal with a mean of 0 and a variance ω² . The BSV was reported as a coefficient of variation (CV) in the original scale CV(%)=100× exp (ω^2)−1 .
# The residual variance was modeled using a combined additive and proportional error model Cobsij=Cpredij(1+ε1ij)+ε2ij where Cobsij and Cpredij are respectively the j^th observed and predicted concentrations for the i^th individual and ε1ij and ε2ij the multiplicative and additive residual errors.
# The bootstrap tool (20 replicates) was used to evaluate the mean, median, SE, and coefficient of variation of the parameter estimates. The predictive ability of the model was checked graphically by plotting Visual Predictive Check plots to compare the observed data with the selected quantiles (here 20th, 50th and 80th percentiles) of data simulated using the model and obtained from 200–1,000 replicates from each animal based on the structure of the original data (i.e., dosing, timing and number of samples).
# For the LRT test, the critical value of the χ^2 distribution considered for a given nominal risk and a given number of degrees of freedom was obtained using the Excel function CHISQ.INV.RT().
# Figure 1. Schematic representation of the compartmental model. […] The link between the two central compartments was modeled with a compartment (CP2) that should be viewed as the liver. […] The fraction of absorbed BPA that is not hepatically transformed reaches the CP3 via K23 . The exchanges between CP2 and CP3 are bilateral, K32 being the rate constant between CP3 and CP2 and K23 the rate constant between CP2 and CP3. […] It was assumed that no phase-two metabolite other than BPAG (BPSG) was formed.
# (12) Bioavailability=K12/K12+K110+K10×(1−K25/K25+K23) with K10 , K12 , K110 , K23; K25 as defined above.
compound,measurement,setting,value
"CC(C)(c1ccc(O)cc1)c1ccc(O)cc1 [BPA, bisphenol A]",LogP,[1],3.3
same,part of the dose eliminated in urine,[2]; 3 h after dosing,About half
same,"unconjugated compound in urine, fraction of IV dose",[2]; IV BPA and BPS doses,0.044±0.028%
same,AUClast/dose,"in vivo; both, pig, in vivo, po",0.0024±0.0027 μmol×h/L per μmol/kg BW
same,Cl_F (apparent clearance),"in vivo; both, pig, in vivo, po",21170 ± 20830 mL/min/kg
same,Tmax,"in vivo; both, pig, in vivo, po, Tmax",57 ± 33 min
same,Tmax,"in vivo; both, pig, in vivo, po, time to maximal plasma concentration",~60 min
same,mean fraction of total (parent plus glucuronide) in plasma that is unconjugated,"in vivo; oral dosing, piglets",0.16%
same,intestinal intrinsic clearance,[3],7.22 mL/min/kg
same,liver intrinsic clearance,[3],61.2 mL/min/kg
same,time after which plasma concentrations were below the LOQ,[4]; after IV BPA and BPS administration,> 12 h
same,AUC0-tlast/dose,"[4]; pig, in vivo, iv",0.34±0.14 μmol×h/L per μmol/kg
same,clearance,"[4]; pig, in vivo, iv",56.8 mL/min/kg
same,"tolerable daily intake (TDI), fixed temporarily",[5],4 μg/kg BW per day
same,"tvK10, rate constant of unabsorbed compound from the gastrointestinal tract, Mean",[6]; bootstrap mean,0.223 h⁻¹
same,"tvK12, rate constant of absorption by enterocytes passing directly into the portal blood, Mean",[6]; bootstrap mean,0.365 h⁻¹
same,"tvK23, distribution rate constant liver to plasma, Mean",[6]; bootstrap mean,1.53 h⁻¹
same,"tvK32, distribution rate constant, Mean",[6]; bootstrap mean,3.72 h⁻¹
same,"tvK34, distribution rate constant, Mean",[6]; bootstrap mean,5.90 h⁻¹
same,"tvK43, distribution rate constant, Mean",[6]; bootstrap mean,3.89 h⁻¹
same,"tvK110, rate constant of compound absorbed by enterocytes locally subjected to glucuronidation, Mean",[6]; bootstrap mean,0.349 h⁻¹
same,"tvK10, rate constant of unabsorbed compound from the gastrointestinal tract, Median",[6]; bootstrap median,0.219 h⁻¹
same,"tvK12, rate constant of absorption by enterocytes passing directly into the portal blood, Median",[6]; bootstrap median,0.371 h⁻¹
same,"tvK23, distribution rate constant liver to plasma, Median",[6]; bootstrap median,1.32 h⁻¹
same,"tvK32, distribution rate constant, Median",[6]; bootstrap median,3.31 h⁻¹
same,"tvK34, distribution rate constant, Median",[6]; bootstrap median,4.14 h⁻¹
same,"tvK43, distribution rate constant, Median",[6]; bootstrap median,3.68 h⁻¹
same,"tvK110, rate constant of compound absorbed by enterocytes locally subjected to glucuronidation, Median",[6]; bootstrap median,0.318 h⁻¹
same,CL renal,"[6]; both, pig, in vivo",0.0333 mL/min/kg
same,mean volume of the central compartment,"[6]; both, pig, in vivo",1.0 L/kg
same,metabolic hepatic clearance as fraction of plasma clearance,"[6]; both, pig, in vivo",higher than 99%
same,renal clearance as fraction of plasma clearance estimated by noncompartmental analysis,"[6]; both, pig, in vivo",0.06%
same,"tvV, volume of the central compartment, Mean","[6]; both, pig, in vivo",1.03 L/kg
same,"tvV, volume of the central compartment, Median","[6]; both, pig, in vivo",1.00 L/kg
same,bioavailability,"[6]; both, pig, in vivo",0.5%
same,k el,"[6]; both, pig, Mean, bootstrap mean",7.22e-07 s⁻¹
same,k el,"[6]; both, pig, Median, bootstrap median",5.56e-07 s⁻¹
same,fraction of the absorbed dose glucuronidated in the gut,"[6]; oral, % of absorbed dose",44%
same,fraction of the absorbed dose reaching the liver / first-pass glucuronidated in the liver,"[6]; oral, % of absorbed dose",53%
same,fraction of the dose reaching the liver unchanged,"[6]; oral, % of administered dose",40.3%
same,fraction of the dose subjected to hepatic first-pass effect,"[6]; oral, % of administered dose",39.9%
same,hepatic first-pass effect: fraction of compound reaching the liver that is glucuronidated,"[6]; oral, % of the fraction reaching the liver",99%
same,"Fraction of absorbed BPA undergoing a first-pass effect (gut and liver), Mean","[6]; oral, bootstrap mean",0.988
same,"Fraction of administered compound glucuronidated by the gastro-intestinal tract, Mean","[6]; oral, bootstrap mean",0.360
same,"Fraction of administered compound reaching the liver by the portal blood flow, Mean","[6]; oral, bootstrap mean",0.405
same,"fraction absorbed by the gastro-intestinal tract, Mean","[6]; oral, bootstrap mean",0.765
same,"Fraction of absorbed BPA undergoing a first-pass effect (gut and liver), Median","[6]; oral, bootstrap median",0.989
same,"Fraction of administered compound glucuronidated by the gastro-intestinal tract, Median","[6]; oral, bootstrap median",0.340
same,"Fraction of administered compound reaching the liver by the portal blood flow, Median","[6]; oral, bootstrap median",0.403
same,"fraction absorbed by the gastro-intestinal tract, Median","[6]; oral, bootstrap median",0.766
same,CL renal,"[6]; pig, in vivo",0.0333 mL/min/kg
same,"renal clearance, Median","[6]; pig, in vivo",0.0333 mL/min/kg
same,bioavailability,"[6]; pig, in vivo",0.5%
